# In patent US12465603B2, “Phthalazinone based modulators for the treatment of disease” (Soley Therapeutics, Inc., priority 2022, dated 2025):
# Columns and labels:
# [1] = system: PA1 (ECACC, 90013101) cells; test: Cell viability assay (Cell Titre Glo, 72 hours) in PA1 cells; type: cell-based; conditions: Homo sapiens, PA-1
# Description: (§1) Example 31: Cell Viability Assays
# (§2) Phthalazinone based modulators as described herein were dispensed into 384 well CulturPlates™ (PerkinElmer) using Echo 555 acoustic dispensing in 10-point dose response curves at a final top concentration of 30 μM following a 1 in 3 dilution series. A2058 (ATCC, CRL-11147) or PA1 (ECACC, 90013101) cells were added directly to a compound at a density of 5000 cells per well in a final volume of 50 μL and incubated for 72 hours at 37° C., 5% CO2. Viability was assessed using Cell Titre Glo® (Promega) according to the manufacturer's instructions (25 μL per well) and IC50 curves were generated for each inhibitor using IDBS ActivityBase data analysis software.
# [2] = system: A2058 (ATCC, CRL-11147) cells; test: Cell viability assay (Cell Titre Glo, 72 hours) in A2058 cells; type: cell-based; conditions: Homo sapiens
# Description: as §1, §2
smiles,measurement,setting,value
CCn1nc(C(=O)N2CCN(c3cccc(F)c3)CC2)c2ccccc2c1=O [Compound 146],IC50,[1],≤ 1000 nM
same,IC50,[2],≤ 1000 nM
"CCn1nc(C(=O)N2CCN(c3cnccc3OC)CC2)c2cc(F)ccc2c1=O [Compound 236, 2-ethyl-6-fluoro-4-(4-(4-methoxypyridin-3-yl)piperazine-1-carbonyl)phthalazin-1(2H)-one]",IC50,[1],≤ 1000 nM
same,IC50,[2],≤ 1000 nM
Cn1nc(C(=O)N2CCN(c3cncc(C#N)c3)CC2)c2ccccc2c1=O [Compound 226],IC50,[1],> 20000 nM
same,IC50,[2],> 20000 nM
CN1CCc2cccc(N3CCN(C(=O)c4nn(C)c(=O)c5ccccc45)CC3)c21 [Compound 79],IC50,[1],10000 to 20000 nM
same,IC50,[2],10000 to 20000 nM
COc1ccncc1N1CCN(C(=O)c2nn(C)c(=O)c3ccc(F)cc23)CC1 [Compound 158],IC50,[1],≤ 1000 nM
same,IC50,[2],≤ 1000 nM
CCn1nc(C(=O)N2CCN(c3ncc(C#N)cc3F)CC2)c2ccccc2c1=O [Compound 86],IC50,[1],> 20000 nM
same,IC50,[2],> 20000 nM
Cn1nc(C(=O)N2CCN(c3ccccn3)CC2)c2ccccc2c1=O [Compound 31],IC50,[1],> 20000 nM
same,IC50,[2],> 20000 nM
"CCn1nc(C(=O)N2CCN(c3cc(F)cc(C#N)c3)CC2)c2cnccc2c1=O [Compound 241, 3-(4-(2-ethyl-1-oxo-1,2-dihydropyrido[3,4-d]pyridazine-4-carbonyl)piperazin-1-yl)-5-fluorobenzonitrile]",IC50,[1],≤ 1000 nM
same,IC50,[2],≤ 1000 nM
"CCn1nc(C(=O)N2CCN(c3cccc(C(F)(F)F)c3)CC2)c2ccccc2c1=O [Compound 81, 2-ethyl-4-(4-(3-(trifluoromethyl)phenyl)piperazine-1-carbonyl)phthalazin-1(2H)-one]",IC50,[1],≤ 1000 nM
same,IC50,[2],1000 to 10000 nM
Cn1nc(C(=O)N2CCN(c3cccc4c3OCC4)CC2)c2ccccc2c1=O [Compound 52],IC50,[1],≤ 1000 nM
same,IC50,[2],≤ 1000 nM
"Cn1cc(C(=O)N2CCN(c3ccccc3)CC2)c2ccccc2c1=O [Compound 1, 2-methyl-4-(4-phenylpiperazine-1-carbonyl)isoquinolin-1-one]",IC50,[1],1000 to 10000 nM
same,IC50,[2],1000 to 10000 nM
CCn1nc(C(=O)N2CCN(c3ncncc3OC)CC2)c2ccccc2c1=O [Compound 98],IC50,[1],1000 to 10000 nM
same,IC50,[2],1000 to 10000 nM
COc1cc(C)cc(N2CCN(C(=O)c3nn(C)c(=O)c4ccncc34)CC2)c1 [Compound 217],IC50,[1],≤ 1000 nM
same,IC50,[2],≤ 1000 nM
COc1cc(F)ccc1N1CCN(C(=O)c2nn(C)c(=O)c3ccncc23)CC1 [Compound 174],IC50,[1],1000 to 10000 nM
same,IC50,[2],10000 to 20000 nM
CCn1nc(C(=O)N2CCN(c3cc(F)ccn3)CC2)c2ccccc2c1=O [Compound 109],IC50,[1],1000 to 10000 nM
same,IC50,[2],1000 to 10000 nM
Cc1cc(N2CCN(C(=O)c3nn(C)c(=O)c4ccccc34)CC2)ccc1F [Compound 55],IC50,[1],10000 to 20000 nM
same,IC50,[2],> 20000 nM
Cc1ccc(C#N)cc1N1CCN(C(=O)c2nn(C)c(=O)c3ccccc23)CC1 [Compound 67],IC50,[1],≤ 1000 nM
same,IC50,[2],≤ 1000 nM
CCn1nc(C(=O)N2CCN(c3ccccc3C(C)(F)F)CC2)c2ccccc2c1=O [Compound 131],IC50,[1],1000 to 10000 nM
same,IC50,[2],1000 to 10000 nM
Cn1nc(C(=O)N2CCN(c3cncnc3C3CC3)CC2)c2cc(F)ccc2c1=O [Compound 168],IC50,[1],≤ 1000 nM
same,IC50,[2],1000 to 10000 nM
CCc1cncc(N2CCN(C(=O)c3nn(C)c(=O)c4ccc(F)cc34)CC2)c1 [Compound 210],IC50,[1],≤ 1000 nM
same,IC50,[2],1000 to 10000 nM
CCn1nc(C(=O)N2CCN(c3cc(OC)ccn3)CC2)c2ccccc2c1=O [Compound 85],IC50,[1],1000 to 10000 nM
same,IC50,[2],1000 to 10000 nM
Cn1nc(C(=O)N2CCN(c3ccccc3C3CC3)CC2)c2cnccc2c1=O [Compound 177],IC50,[1],≤ 1000 nM
same,IC50,[2],≤ 1000 nM
Cn1nc(C(=O)N2CCN(c3cc(F)cc(Cl)c3)CC2)c2cnccc2c1=O [Compound 222],IC50,[1],≤ 1000 nM
same,IC50,[2],≤ 1000 nM
CCn1nc(C(=O)N2CCN(c3cc(OC)cnn3)CC2)c2ccccc2c1=O [Compound 112],IC50,[1],> 20000 nM
same,IC50,[2],> 20000 nM
COc1cc(F)cnc1N1CCN(C(=O)c2nn(C)c(=O)c3ccccc23)CC1 [Compound 13],IC50,[1],1000 to 10000 nM
same,IC50,[2],10000 to 20000 nM
Cn1nc(C(=O)N2CCN(c3cc(F)cc(OC(F)(F)F)c3)CC2)c2ccccc2c1=O [Compound 197],IC50,[1],≤ 1000 nM
same,IC50,[2],1000 to 10000 nM
CCOc1ccccc1N1CCN(C(=O)c2nn(C)c(=O)c3ccccc23)CC1 [Compound 42],IC50,[1],≤ 1000 nM
same,IC50,[2],≤ 1000 nM
CCn1nc(C(=O)N2CCN(c3cc(F)ccc3OC)CC2)c2ccccc2c1=O [Compound 121],IC50,[1],≤ 1000 nM
same,IC50,[2],≤ 1000 nM
COc1cc(F)ccc1N1CCN(C(=O)c2nn(C)c(=O)c3cnccc23)CC1 [Compound 178],IC50,[1],> 20000 nM
same,IC50,[2],> 20000 nM
Cn1nc(C(=O)N2CCN(c3nccc4sccc34)CC2)c2ccccc2c1=O [Compound 194],IC50,[1],1000 to 10000 nM
same,IC50,[2],10000 to 20000 nM
CCCn1nc(C(=O)N2CCN(c3ccccc3)CC2)c2ccccc2c1=O [Compound 5],IC50,[1],10000 to 20000 nM
same,IC50,[2],> 20000 nM
CC(C)c1cncc(N2CCN(C(=O)c3nn(C)c(=O)c4ccccc34)CC2)c1 [Compound 204],IC50,[1],> 20000 nM
same,IC50,[2],> 20000 nM
Cc1cncc(N2CCN(C(=O)c3nn(C)c(=O)c4ccccc34)CC2)c1 [Compound 73],IC50,[1],1000 to 10000 nM
same,IC50,[2],1000 to 10000 nM
CCn1nc(C(=O)N2CCN(c3ccccc3C3CC3)CC2)c2ccccc2c1=O [Compound 103],IC50,[1],≤ 1000 nM
same,IC50,[2],≤ 1000 nM
CCn1nc(C(=O)N2CCN(c3cccc(OC)n3)CC2)c2ccccc2c1=O [Compound 84],IC50,[1],≤ 1000 nM
same,IC50,[2],≤ 1000 nM
COc1ccccc1N1CCN(C(=O)c2nn(C)c(=O)c3cnccc23)CC1 [Compound 179],IC50,[1],1000 to 10000 nM
same,IC50,[2],1000 to 10000 nM
CCn1nc(C(=O)N2CCN(c3ncccc3F)CC2)c2ccccc2c1=O [Compound 107],IC50,[1],> 20000 nM
same,IC50,[2],> 20000 nM
Cn1nc(C(=O)N2CCN(c3cc(F)cc(OC(F)F)c3)CC2)c2ccccc2c1=O [Compound 198],IC50,[1],≤ 1000 nM
same,IC50,[2],≤ 1000 nM
CCn1nc(C(=O)N2CCN(c3ccccc3F)CC2)c2ccccc2c1=O [Compound 100],IC50,[1],≤ 1000 nM
same,IC50,[2],1000 to 10000 nM
COc1ccc(C#N)cc1N1CCN(C(=O)c2nn(C)c(=O)c3ccccc23)CC1 [Compound 70],IC50,[1],≤ 1000 nM
same,IC50,[2],≤ 1000 nM
CCOc1cc(F)ccc1N1CCN(C(=O)c2nn(CC)c(=O)c3ccccc23)CC1 [Compound 148],IC50,[1],≤ 1000 nM
same,IC50,[2],≤ 1000 nM
COc1ncc(C)cc1N1CCN(C(=O)c2nn(C)c(=O)c3ccccc23)CC1 [Compound 77],IC50,[1],1000 to 10000 nM
same,IC50,[2],1000 to 10000 nM
Cn1nc(C(=O)N2CCN(c3nccn4ccnc34)CC2)c2ccccc2c1=O [Compound 196],IC50,[1],> 20000 nM
same,IC50,[2],> 20000 nM
Cn1nc(C(=O)N2CCN(c3ccc(F)c(F)c3)CC2)c2ccccc2c1=O [Compound 43],IC50,[1],1000 to 10000 nM
same,IC50,[2],1000 to 10000 nM
CCn1nc(C(=O)N2CCN(c3cc(F)cc(C#N)c3)CC2)c2cc(F)ccc2c1=O [Compound 239],IC50,[1],≤ 1000 nM
same,IC50,[2],≤ 1000 nM
CCn1nc(C(=O)N2CCN(c3ccccc3C#N)CC2)c2ccccc2c1=O [Compound 133],IC50,[1],10000 to 20000 nM
same,IC50,[2],> 20000 nM
"CCn1nc(C(=O)N2CCN(c3cccc(C#N)c3OC)CC2)c2ccccc2c1=O [Compound 151, 3-(4-(3-ethyl-4-oxo-3,4-dihydrophthalazine-1-carbonyl)piperazin-1-yl)-2-methoxybenzonitrile]",IC50,[1],1000 to 10000 nM
same,IC50,[2],10000 to 20000 nM
COc1nccnc1N1CCN(C(=O)c2nn(C)c(=O)c3ccccc23)CC1 [Compound 16],IC50,[1],1000 to 10000 nM
same,IC50,[2],10000 to 20000 nM
CCn1nc(C(=O)N2CCN(c3cc(Cl)cc(C#N)c3)CC2)c2cc(F)ccc2c1=O [Compound 237],IC50,[1],≤ 1000 nM
same,IC50,[2],≤ 1000 nM
Cn1nc(C(=O)N2CCN(c3cc(Cl)cc(Cl)c3)CC2)c2cnccc2c1=O [Compound 218],IC50,[1],≤ 1000 nM
same,IC50,[2],≤ 1000 nM
CCn1nc(C(=O)N2CCN(c3ccccc3OC(C)C)CC2)c2ccccc2c1=O [Compound 128],IC50,[1],≤ 1000 nM
same,IC50,[2],1000 to 10000 nM
"CCn1nc(C(=O)N2CCN(c3cccc(C4CC4)c3)CC2)c2ccccc2c1=O [Compound 116, 4-(4-(3-cyclopropylphenyl)piperazine-1-carbonyl)-2-ethylphthalazin-1(2H)-one]",IC50,[1],≤ 1000 nM
same,IC50,[2],≤ 1000 nM
Cn1nc(C(=O)N2CCN(c3cc(C#N)ccc3C(F)F)CC2)c2ccccc2c1=O [Compound 200],IC50,[1],1000 to 10000 nM
same,IC50,[2],1000 to 10000 nM
Cn1nc(C(=O)N2CCN(c3cccc(Cl)c3)CC2)c2ccccc2c1=O [Compound 47],IC50,[1],≤ 1000 nM
same,IC50,[2],≤ 1000 nM
COc1cnccc1N1CCN(C(=O)c2nn(C)c(=O)c3ccccc23)CC1 [Compound 15],IC50,[1],≤ 1000 nM
same,IC50,[2],1000 to 10000 nM
CCn1nc(C(=O)N2CCN(c3ccccc3OC(F)(F)F)CC2)c2ccccc2c1=O [Compound 135],IC50,[1],≤ 1000 nM
same,IC50,[2],≤ 1000 nM
CCn1nc(C(=O)N2CCN(c3ncc(C#N)cc3C)CC2)c2ccccc2c1=O [Compound 91],IC50,[1],> 20000 nM
same,IC50,[2],> 20000 nM
CCn1nc(C(=O)N2CCN(c3ncc(F)cc3C(F)(F)F)CC2)c2ccccc2c1=O [Compound 140],IC50,[1],1000 to 10000 nM
same,IC50,[2],1000 to 10000 nM
COc1ncccc1N1CCN(C(=O)c2nn(C)c(=O)c3ccccc23)CC1 [Compound 20],IC50,[1],1000 to 10000 nM
same,IC50,[2],1000 to 10000 nM
Cn1nc(C(=O)N2CCN(c3cncc4c3OCC4)CC2)c2ccccc2c1=O [Compound 190],IC50,[1],≤ 1000 nM
same,IC50,[2],≤ 1000 nM
CCn1nc(C(=O)N2CCN(c3ccccc3OCC(F)(F)F)CC2)c2ccccc2c1=O [Compound 147],IC50,[1],1000 to 10000 nM
same,IC50,[2],1000 to 10000 nM
CCn1nc(C(=O)N2CCN(c3ccc(OC)c(F)c3)CC2)c2ccccc2c1=O [Compound 141],IC50,[1],> 20000 nM
same,IC50,[2],> 20000 nM
